Consider 7 molecules from ChEMBL document CHEMBL5365543, “Benzamidine Conjugation Converts Expelled Potential Active Agents into Antifungals against Drug-Resistant Fungi” (J Med Chem, 2023).

A short description of series [1]: Cytotoxicity against human HBE cells assessed as inhibition of cell growth measured after 4 hrs by MTT assay. Type of series: toxicity, cell-based. (Formazan colour is commonly taken as a measure of viable cells.)
Series [2] relates to Candida albicans. Kind of series: Antifungal activity against wild-type Candida albicans SC5314 assessed as inhibition of fungal growth measured after 24 hrs by CLSI based microtiter plate analysis. The format is functional. To be noted: for MIC80: Candida albicans.
Series [3] is described as follows: Induction of hemolysis in mouse RBC cells at 2 to 32 microg/ml incubated for 60 mins by absorbance based analysis. The conditions noted are these: red blood cells (erythrocytes), at 2 to 32 µg/mL, dose 2-32 µg/ml, read-out: Activity. The format is toxicity, cell-based, Erythrocyte.
Series [4] has as its system Candida albicans. Nature of the series: microbe, parasite or virus in culture. Type of series: functional. The conditions noted are these: DSY654, time 24 hrs.
Description: Antifungal activity against efflux pump-deficient Candida albicans DSY654 assessed as inhibition of fungal growth measured after 24 hrs by CLSI based microtiter plate analysis
Series [5] is described as follows: Cytotoxicity against mouse L929 cells assessed as inhibition of cell growth measured after 4 hrs by MTT assay. Type of series: toxicity, cell-based.
For series [6], the system named is Candida albicans. Kind of series: Drug accumulation in Candida albicans SC5314 measured per 10^8 cells incubated for 3 hrs by HPLC analysis. The format is functional, organism-based.
In series [7] the test system is Candida albicans. Nature of the series: Antifungal activity against clinical isolate Candida albicans SCMRRIR34MPG2A harbouring MRR1 mutation overexpressing efflux pump MdrL assessed as inhibition of fungal growth measured after 24 hrs by CLSI based microtiter plate analysis. The format is functional.
The test system of series [8] is Candida albicans. Kind of series: Antifungal activity against clinical isolate Candida albicans YEM15 overexpressing efflux pump CdrL and Cdr2 assessed as inhibition of fungal growth measured after 24 hrs by CLSI based microtiter plate analysis. Type of series: functional.
The subject of series [9] is Candida albicans. Kind of series: Antifungal activity against clinical isolate fluconazole-resistant Candida albicans CA632 assessed as inhibition of fungal growth measured after 24 hrs by CLSI based microtiter plate analysis. The format is functional.
Series [10] can be described thus: Drug accumulation in wild-type Candida albicans SC5314 at 50 microg/ml incubated for 3 hrs by HPLC analysis. The format is ADME. To be noted: dose 50 µg/ml.
The subject of series [11] is Candida albicans. Nature of the series: Antifungal activity against clinical isolate Candida albicans YEM13 overexpressing efflux pump MdrL assessed as inhibition of fungal growth measured after 24 hrs by CLSI based microtiter plate analysis. The format is functional.
Series [12] concerns Candida albicans. Kind of series: Antifungal activity against clinical isolate fluconazole-resistant Candida albicans Gu5 harbouring TAC1 mutation overexpressing efflux pump CdrL and Cdr2 assessed as inhibition of fungal growth measured after 24 hrs by CLSI based microtiter plate analysis. The format is functional.
Series [13] has as its system Candida tropicalis. Kind of series: Antifungal activity against clinical isolate fluconazole-resistant Candida tropicalis CT10 assessed as inhibition of fungal growth measured after 24 hrs by CLSI based microtiter plate analysis. The format is functional.
Series [14] concerns Nakaseomyces glabratus. Kind of series: Antifungal activity against clinical isolate fluconazole-resistant Candida glabrata CG2 assessed as inhibition of fungal growth measured after 24 hrs by CLSI based microtiter plate analysis. The format is functional.
Series [15] deals with [Candida] auris. Nature of the series: Antifungal activity against clinical isolate fluconazole-resistant Candida auris CBS12774 assessed as inhibition of fungal growth measured after 24 hrs by CLSI based microtiter plate analysis. Type of series: functional. To be noted: Candidozyma auris.
Series [16] has as its system Candida albicans. Kind of series: Antifungal activity against clinical isolate fluconazole-resistant Candida albicans G5 harbouring MRR1 mutation overexpressing MdrL assessed as inhibition of fungal growth measured after 24 hrs by CLSI based microtiter plate analysis. The format is functional.
Series [17] concerns Cryptococcus neoformans. Kind of series: Antifungal activity against clinical isolate fluconazole-resistant Cryptococcus neoformans H99 assessed as inhibition of fungal growth measured after 24 hrs by CLSI based microtiter plate analysis. Type of series: functional.
The subject of series [18] is Candida albicans. Kind of series: Antifungal activity against clinical isolate fluconazole-resistant Candida albicans DSY296 harbouring TAC1 mutation overexpressing efflux pump CdrL and Cdr2 assessed as inhibition of fungal growth measured after 24 hrs by CLSI based microtiter plate analysis. Type of series: functional.
The subject of series [19] is [Candida] auris. Kind of series: Antifungal activity against clinical isolate fluconazole-resistant Candida auris CBS12776 assessed as inhibition of fungal growth measured after 24 hrs by CLSI based microtiter plate analysis. The format is functional. To be noted: Candidozyma auris.
Series [20] relates to Candida albicans. Kind of series: Antifungal activity against clinical isolate Candida albicans SCUPC2R14MPG2A harbouring UPC2 mutation overexpressing […] Erg11 assessed as inhibition of fungal growth measured after 24 hrs by CLSI based microtiter plate analysis. Type of series: functional.

The structures appear in SMILES notation. Values after ≈ are worked out from the molar mass of the structure shown. Active and inactive are the calls of the source. The calls are words filed in the database; no cut-off is given here.

By IC50 is commonly meant the concentration needed to halve the response being measured. `C=C1C[C@@]23CC[C@H]4[C@@](C)(CCC[C@@]4(C)C(=O)OCCCc4c5[n+](cc6c(OC)c(OC)ccc46)CCc4cc6c(cc4-5)OCO6)[C@@H]2CC[C@]1(O)C3.[I-]`: the IC50 at 4 h in series [1] was found to be 4.79 mg/L; in series [5] it was 1.32 mg/L. Moreover, the MIC80 is 8 mg/L in [2] (SC5314, read-out: MIC80) and 4 mg/L in series [4]. Also, in series [3], the hemolysis at 1 h is under 2%.

As to `C=C1C[C@@]23CC[C@H]4[C@@](C)(CCC[C@@]4(C)C(=O)OCC[N+](C)(CC)CC)[C@@H]2CC[C@]1(O)C3.[I-]`, in series [6], the Drug uptake result is “inactive”. Moreover, the MIC80 was over 256 mg/L in series [2] (SC5314, read-out: MIC80) and 32 mg/L in series [4].

Consider `C=C1C[C@@]23CC[C@H]4[C@@](C)(CCC[C@@]4(C)C(=O)OCCCCC[n+]4c(C)cc(N)c5ccccc54)[C@@H]2CC[C@]1(O)C3.[I-]`, for which the IC50 at 4 h in series [1] came to 6.53 mg/L; in [5] it was 8.34 mg/L. For the same molecule, the MIC80 in series [2] (SC5314, read-out: MIC80) came to 8 mg/L; in series [4], 4 mg/L. For the same molecule, the hemolysis at 1 h in series [3] is under 2%.

For `C=C1C[C@@]23CC[C@H]4[C@@](C)(CCC[C@@]4(C)C(=O)OCCC[P+](c4ccccc4)(c4ccccc4)c4ccccc4)[C@@H]2CC[C@]1(O)C3.[I-]`, the concentration for half-maximal inhibition (IC50) at 4 h was found to be 3.59 mg/L in [1] and 6.94 mg/L in [5]. In addition, the MIC80 in series [2] (SC5314, read-out: MIC80) stood at 16 mg/L; in series [4], 16 mg/L. For the same molecule, in series [3], the hemolysis at 1 h came to 5.9%.

For the molecule `C=C1C[C@@]2(CC)[C@@H](CC[C@@]2(O)c2cn(CCCOc3ccc(C(=N)N)cc3)nn2)[C@@H]2CCC3=CCCC[C@@H]3[C@@H]12`, the MIC80 came to 64 mg/L (≈ 121 µM) in [7]; 64 mg/L (≈ 121 µM) in [8]; 32 mg/L (≈ 60.4 µM) in series [9]; 32 mg/L (≈ 60.4 µM) in [2] (SC5314, 24 h, read-out: MIC80); 32 mg/L (≈ 60.4 µM) in series [11]; 64 mg/L (≈ 121 µM) in [12]. For the same molecule, the MIC80 in [13], in series [14], in series [15], in series [16], in series [17] and in series [18] was 64 mg/L (≈ 121 µM) in each case. Further, the MIC80 in series [19] and in [20] was 64 mg/L (≈ 121 µM) throughout. Besides, in series [10], the Drug uptake entry is on record as “Active”. Besides, the MIC result in series [2] was “inactive”.

`C=C1C[C@@]23CC[C@H]4[C@@](C)(CCC[C@@]4(C)C(=O)O)[C@@H]2CC[C@]1(O)C3` [STEVIOL]: the Drug uptake result in [6] is “inactive”. In series [2] (SC5314, read-out: MIC80), the MIC80 is over 256 mg/L. In series [4], the MIC amounted to 256 mg/L (≈ 804 µM) and the MIC80 turned out to be 256 mg/L (≈ 804 µM).

Take `Cc1ccc(Sc2ccccc2N2CCN(CCCOc3ccc(C(=N)N)cc3)CC2)c(C)c1`: the MIC80 in series [7] was 4 mg/L (≈ 8.43 µM); in series [8], 4 mg/L (≈ 8.43 µM); in series [9], 4 mg/L (≈ 8.43 µM); in [2] (SC5314, 24 h, read-out: MIC80) it was 4 mg/L (≈ 8.43 µM); in [11] it was 4 mg/L (≈ 8.43 µM); in series [12], 4 mg/L (≈ 8.43 µM). In addition, the MIC80 came out at 4 mg/L (≈ 8.43 µM) in series [13]; 8 mg/L (≈ 16.9 µM) in [14]; 8 mg/L (≈ 16.9 µM) in series [15]; 8 mg/L (≈ 16.9 µM) in series [16]; 4 mg/L (≈ 8.43 µM) in series [17]; 4 mg/L (≈ 8.43 µM) in series [18]. The results for the MIC80 in series [19] and in [20] were 8 mg/L (≈ 16.9 µM) and 4 mg/L (≈ 8.43 µM), respectively. For the same molecule, the Drug uptake entry in series [10] is recorded as “Active”. The MIC result in series [2] was “inactive”.
